Reference: the supplement of paper PMC9663587

What was measured:
[1] = compound: CN(C)C/C=C/C(=O)Nc1ccc(C(=O)N2CCC[C@@H](Nc3ncc(Cl)c(-c4c[nH]c5ccccc45)n3)C2)cc1 [THZ531]; assay: increase in dead-cell fraction, 72 h; higher = more death;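 note: breast cancer cell lines in 384-well plates, stained with Hoechst plus LIVE/DEAD far red dye and imaged, cells above an LDR intensity threshold counted dead, Hoechst-negative corpses included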
[2] = compound: CCOc1cc2ncc(C#N)c(Nc3ccc(OCc4ccccn4)c(Cl)c3)c2cc1NC(=O)/C=C/CN(C)C [Neratinib/HKI272]; assay: as above
[3] = compound: CCc1cnn2c(NCc3ccc[n+]([O-])c3)cc(N3CCCC[C@H]3CCO)nc12; assay: as above
[4] = compound: CN(C)C/C=C/C(=O)Nc1ccc(C(=O)Nc2cccc(Nc3ncc(Cl)c(-c4c[nH]c5ccccc45)n3)c2)cc1 [THZ1]; assay: as above
[5] = compound: CN(C)C(=O)c1cc2cnc(Nc3ccc(N4CCNCC4)cn3)nc2n1C1CCCC1 [LEE011/Ribociclib]; assay: as above
[6] = compound: CC(=O)c1c(C)c2cnc(Nc3ccc(N4CCN(CCOCCOCCOCCNC(=O)COc5cccc6c5C(=O)N(C5CCC(=O)NC5=O)C6=O)CC4)cn3)nc2n(C2CCCC2)c1=O [BSJ-03-123]; assay: as above
[7] = compound: CN1CC[C@H](c2c(O)cc(O)c3c(=O)cc(-c4ccccc4Cl)oc23)[C@H](O)C1 [Flavopiridol]; assay: as above
[8] = compound: CC(=O)c1c(C)c2cnc(Nc3ccc(N4CCNCC4)cn3)nc2n(C2CCCC2)c1=O; assay: as above
[9] = compound: C=CC(=O)Nc1ccc(C(=O)Nc2[nH]nc3c2CN(C(=O)N[C@H](CN(C)C)c2ccccc2)C3(C)C)cc1 [YKL-5-124]; assay: as above
[10] = compound: CCN1CCN(Cc2ccc(Nc3ncc(F)c(-c4cc(F)c5nc(C)n(C(C)C)c5c4)n3)nc2)CC1; assay: as above
[11] = compound: Cc1cc(Nc2ncc(Cl)c(Nc3ccccc3S(=O)(=O)C(C)C)n2)c(OC(C)C)cc1C1CCNCC1 [Ceritinib/LDK378]
[12] = compound: CN1CCN(CCOc2cc(OC3CCOCC3)c3c(Nc4c(Cl)ccc5c4OCO5)ncnc3c2)CC1 [Saracatinib/AZD0530]
[13] = compound: CCNC(=O)c1noc(-c2cc(C(C)C)c(O)cc2O)c1-c1ccc(CN2CCOCC2)cc1 [Luminespib/NVP-AUY922]
[14] = compound: CN(C)C/C=C/C(=O)Nc1ccc(O[C@@H]2CCC[C@@H](Nc3ncc(Cl)c(-c4c[nH]c5ccccc45)n3)C2)cc1 [BSJ-01-175]
[15] = compound: CCCCOc1c(C(=O)c2c(F)cc(C)cc2F)c[nH]c2nncc1-2
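Throughout, for GR50, 72 h: breast cancer and non-malignant breast epithelial cell lines, Deep Dye Drop or Dye Drop imaging, nine half-log doses, GR normalized to time-zero plates and DMSO-only controls.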

MDAMB330
increase in dead-cell fraction ([1]; 0.0001 µM): 0.0039
increase in dead-cell fraction ([1]; 0.0003162 µM): -0.0007
increase in dead-cell fraction ([1]; 0.001 µM): 0.0004
increase in dead-cell fraction ([1]; 0.003162 µM): 0.0018
increase in dead-cell fraction ([1]; 0.01 µM): 0.0041
increase in dead-cell fraction ([1]; 0.03162 µM): 0.0164
increase in dead-cell fraction ([1]; 0.1 µM): 0.664
increase in dead-cell fraction ([1]; 0.3162 µM): 0.519
increase in dead-cell fraction ([1]; 1 µM): 0.413
increase in dead-cell fraction ([2]; 0.0003162 µM): -0.0001
increase in dead-cell fraction ([2]; 0.001 µM): 0.0011
increase in dead-cell fraction ([2]; 0.003162 µM): 0.0102
increase in dead-cell fraction ([2]; 0.01 µM): 0.043
increase in dead-cell fraction ([2]; 0.03162 µM): 0.0716
increase in dead-cell fraction ([2]; 0.1 µM): 0.0731
increase in dead-cell fraction ([2]; 0.3162 µM): 0.0685
increase in dead-cell fraction ([2]; 1 µM): 0.0784
increase in dead-cell fraction ([2]; 3.162 µM): 0.0756
increase in dead-cell fraction ([3]; 0.0001 µM): -0.0012
increase in dead-cell fraction ([3]; 0.0003162 µM): -0.0001
increase in dead-cell fraction ([3]; 0.001 µM): 0.0032
increase in dead-cell fraction ([3]; 0.003162 µM): 0.0022
increase in dead-cell fraction ([3]; 0.01 µM): 0.0023
increase in dead-cell fraction ([3]; 0.03162 µM): 0.0691
increase in dead-cell fraction ([4]; 0.0001 µM): 0.0016
increase in dead-cell fraction ([4]; 0.0003162 µM): 0.0039
increase in dead-cell fraction ([4]; 0.001 µM): 0.0043
increase in dead-cell fraction ([4]; 0.003162 µM): 0.0044
increase in dead-cell fraction ([4]; 0.01 µM): 0.0071
increase in dead-cell fraction ([4]; 0.03162 µM): 0.105
increase in dead-cell fraction ([4]; 0.1 µM): 0.359
increase in dead-cell fraction ([4]; 0.3162 µM): 0.389
increase in dead-cell fraction ([4]; 1 µM): 0.311
increase in dead-cell fraction ([5]; 0.001 µM): 0.0031
increase in dead-cell fraction ([5]; 0.003162 µM): 0.0013
increase in dead-cell fraction ([5]; 0.01 µM): 0.0054
increase in dead-cell fraction ([5]; 0.03162 µM): 0.0111
increase in dead-cell fraction ([5]; 0.1 µM): 0.0037
increase in dead-cell fraction ([5]; 0.3162 µM): -0.0005
increase in dead-cell fraction ([5]; 1 µM): -0.0028
increase in dead-cell fraction ([5]; 3.162 µM): 0.0128
increase in dead-cell fraction ([5]; 10 µM): 0.0025
increase in dead-cell fraction ([6]; 0.001 µM): 0.0018
increase in dead-cell fraction ([6]; 0.003162 µM): 0.0001
increase in dead-cell fraction ([6]; 0.01 µM): 0.0015
increase in dead-cell fraction ([6]; 0.03162 µM): 0.003
increase in dead-cell fraction ([6]; 0.1 µM): 0.0019
increase in dead-cell fraction ([6]; 0.3162 µM): 0.0031
increase in dead-cell fraction ([6]; 1 µM): 0.0019
increase in dead-cell fraction ([6]; 3.162 µM): 0.0034
increase in dead-cell fraction ([6]; 10 µM): 0.0354
increase in dead-cell fraction ([7]; 0.0001 µM): -0.0007
increase in dead-cell fraction ([7]; 0.0003162 µM): 0.0052
increase in dead-cell fraction ([7]; 0.001 µM): -0.0013
increase in dead-cell fraction ([7]; 0.003162 µM): -0.0006
increase in dead-cell fraction ([7]; 0.01 µM): -0.0015
increase in dead-cell fraction ([7]; 0.03162 µM): 0.0024
increase in dead-cell fraction ([7]; 0.1 µM): -0.0007
increase in dead-cell fraction ([7]; 0.3162 µM): 0.0097
increase in dead-cell fraction ([7]; 1 µM): 0.25
increase in dead-cell fraction ([8]; 0.0003162 µM): -0.001
increase in dead-cell fraction ([8]; 0.001 µM): -0.0006
increase in dead-cell fraction ([8]; 0.003162 µM): -0.001
increase in dead-cell fraction ([8]; 0.01 µM): -0.0033
increase in dead-cell fraction ([8]; 0.03162 µM): -0.0012
increase in dead-cell fraction ([8]; 0.1 µM): -0.0017
increase in dead-cell fraction ([8]; 0.3162 µM): 0.0031
increase in dead-cell fraction ([8]; 1 µM): 0.0053
increase in dead-cell fraction ([8]; 3.162 µM): 0.0031
increase in dead-cell fraction ([9]; 0.001 µM): 0.0025
increase in dead-cell fraction ([9]; 0.003162 µM): 0.0078
increase in dead-cell fraction ([9]; 0.01 µM): 0.0057
increase in dead-cell fraction ([9]; 0.03162 µM): 0.0038
increase in dead-cell fraction ([9]; 0.1 µM): 0.0034
increase in dead-cell fraction ([9]; 0.3162 µM): 0.0041
increase in dead-cell fraction ([9]; 1 µM): 0.0016
increase in dead-cell fraction ([9]; 3.162 µM): 0.0166
increase in dead-cell fraction ([9]; 10 µM): 0.131
increase in dead-cell fraction ([10]; 0.001 µM): 0.0005
increase in dead-cell fraction ([10]; 0.003162 µM): -0.0003
increase in dead-cell fraction ([10]; 0.01 µM): 0.0039
increase in dead-cell fraction ([10]; 0.03162 µM): 0.003
increase in dead-cell fraction ([10]; 0.1 µM): 0.0014
increase in dead-cell fraction ([10]; 0.3162 µM): 0.0018
increase in dead-cell fraction ([10]; 1 µM): 0.0017
increase in dead-cell fraction ([10]; 3.162 µM): 0.0048
increase in dead-cell fraction ([10]; 10 µM): 0.0109
GR50, 72 h [11]: 1.13 µM
GR50, 72 h [12]: 1.2 µM
GR50, 72 h [13]: 0.00239 µM
GR50, 72 h [14]: 0.00635 µM
GR50, 72 h [15]: 0.762 µM
